Reference: patent publication US20220057378A1, “MICROBIAL MICROFLUIDIC BIOSENSOR” (priority 2015, published 2022)
Where two headings read alike, the source gives them in different places.

Key:
As3 = experiment: microplate specificity test with on- and off-target heavy metals (fluorescence); assay type: cell-based, E. coli; settings: on-target = 1, no-toxin control = 0; As 1.3, Cd 0.44, Cr(VI) 2, Cu 20, Pb 1, Hg 0.1, Co 20, Fe 500, Ni 1.7, Zn 7.6 μM
Source text: (§1) Each column represents the fluorescence response of a strain to the on-target metal (normalized to “1”) and all off-target metals, where “0” represents the unchanged response for the no-toxin control.
(§2) Although the ability to sense cobalt, iron, nickel, and zinc is of secondary importance, these heavy metals were included as potential off-target inducers because they may be present in the natural water supply under test. […] This combinatorial logic was implemented in algorithms.

Cd1 = experiment: as above; assay type: cell-based, E. coli; settings: on-target = 1, no-toxin control = 0; As 1.3, Cd 0.44, Cr(VI) 2, Cu 20, Pb 1, Hg 0.1, Co 20, Fe 500, Ni 1.7, Zn 7.6 μM
Source text: as §1, §2

Cr5 = experiment: as above; assay type: cell-based, E. coli; settings: on-target = 1, no-toxin control = 0; As 1.3, Cd 0.44, Cr(VI) 2, Cu 20, Pb 1, Hg 0.1, Co 20, Fe 500, Ni 1.7, Zn 7.6 μM
Source text: as §1, §2

Cu1 = experiment: as above; assay type: cell-based, E. coli; settings: on-target = 1, no-toxin control = 0; As 1.3, Cd 0.44, Cr(VI) 2, Cu 20, Pb 1, Hg 0.1, Co 20, Fe 500, Ni 1.7, Zn 7.6 μM
Source text: as §1, §2

Hg3 = experiment: as above; assay type: cell-based, E. coli; settings: on-target = 1, no-toxin control = 0, As 1.3, Cd 0.44, Cr(VI) 2, Cu 20, Pb 1, Hg 0.1, Co 20, Fe 500, Ni 1.7, Zn 7.6 μM
Source text: as §1, §2

Pb2 = experiment: as above; assay type: cell-based, E. coli; settings: on-target = 1, no-toxin control = 0; As 1.3, Cd 0.44, Cr(VI) 2, Cu 20, Pb 1, Hg 0.1, Co 20, Fe 500, Ni 1.7, Zn 7.6 μM
Source text: as §1, §2

E. coli MG1655 = assay type: cell-based; settings: for Number DE Genes: false discovery rate below 1%
Source text: RNA-Seq results for promoter activation in E. coli MG1655 in response to single and multiple toxin exposures at low and high concentrations: Our analysis of the sequencing data from RNA-Seq experiments to determine candidate genes that are induced upon toxin exposure consisted of three main tasks: sequence alignment, quantification of gene expression, and identification of differentially expressed genes. Sequence alignment: Reads were aligned to the reference E. coli K-12 substr. MG1655 genome using a tolerance of at most two mismatches per alignment to protect against sequencing errors. The alignment was performed using Bowtie software, 5 which is known to be very efficient in aligning reads to a reference genome. Without being limiting, Bowtie software 5 can be used for the alignment. Those skilled in the art will appreciate that there are many such software programs for performing alignments.
Quantification of gene expression: The expression level of each gene was determined as a function of the number of aligned reads mapping to the gene. […] Additionally, we implemented our own algorithms for sequence alignment and quantification of gene expression in order to crosscheck all results.
Identification of differentially expressed genes: Finally, a set of statistical and information theory algorithms were applied in order to extract not only differentially expressed (DE) genes for each toxin with respect to the control samples (pure water) but also toxin-specific genes. DESeq is a standard tool for identifying DE genes that allowed us to select sensitive genes with differential expression between the control samples (pure water) and the cells exposed to toxin. It assumes that the number of counts for each gene across experimental replicates follows a negative binomial distribution (8, 9). We considered genes with a False Discovery Rate (FDR) lower than 1% as DE in order to ensure statistically robust DE genes. […] Additionally, genes with the largest number of counts and expression levels are preferable in order to maximize the signal-to-noise ratio. When it is not possible to find toxin-specific genes, the next generation of good candidates is formed by those genes satisfying the above properties for a small subset of toxins (multiple-toxin response). It is desirable to have single-toxin-specific genes for several of the toxins in the combination in order to determine toxin-specific multi-gene-responses by means of logical operations. […] Therefore, we have developed information theoretic measures to improve the toxin separability. The core idea of the approach is that low entropies (or highly informative genes) correspond to toxin-specific genes, while large entropies (low information) are associated with scenarios in which DE fold-changes across different toxins are similar and should be discarded.
Milestone 2.1: Expose target cells to toxins of interest over four orders of magnitude of concentration and extract RNA: Three strains of bacteria were exposed to relevant levels of all toxins and extracted RNA. The toxin exposure protocol involves first growing a culture of bacterial cells to mid-log phase (OD≤0.2). […] Finally, cellular RNA was stabilized using Qiagen RNA Protect reagent, the cells were centrifuged, and the pellet was frozen at −80° C. To investigate the cellular RNA response to toxin insult, we exposed E. coli MG1655, E. coli LABEC01, and B. subtilis 168 cells to the toxins and concentrations shown in Table 7 and extracted RNA.
Milestone 2.5: Prepare isolated RNA for Illumina sequencing using vendor provided reagents and carry out sequencing: We have prepared libraries and carried out sequencing for all toxins of interest.

E. coli MG1655 cells = experiment: batch growth curves of cells exposed to toxin around the EPA limit; assay type: cell-based; settings: batch culture, levels around the EPA limit
Source text: In determining the toxin concentrations for exposure, EPA limit was explored. […] The general strategy was to examine the cellular RNA response at toxin levels where the cells are responding specifically to the presence of the toxin without triggering a universal (and unspecific) cellular stress response.

| Compound | fluorescence response of strain As3 (on-target arsenic) (As3) | fluorescence response of strain Cd1 (on-target cadmium) (Cd1) | fluorescence response of strain Cr5 (on-target chromium(VI)) (Cr5) | fluorescence response of strain Cu1 (on-target copper) (Cu1) | fluorescence response of strain Hg3 (on-target mercury) (Hg3) | fluorescence response of strain Pb2 (on-target lead) (Pb2) | response of the arsR promoter (E. coli MG1655; RNA-Seq mean fold change) | Number DE Genes (E. coli MG1655; high concentration) | Number DE Genes (E. coli MG1655; low concentration) | response of the zntA promoter (E. coli MG1655; RNA-Seq mean fold change) | fluorescence response of strain Hg3 (on-target mercury) (Hg3; listed as chromium(VI)) | response of the recN promoter (E. coli MG1655; RNA-Seq mean fold change) | response of the sulA promoter (E. coli MG1655; RNA-Seq mean fold change) | response of the umuD promoter (E. coli MG1655; RNA-Seq mean fold change) | growth phase lag of cells exposed to toxin (E. coli MG1655 cells) | response of the cusC promoter (E. coli MG1655; RNA-Seq mean fold change) | response of the cusR promoter (E. coli MG1655; RNA-Seq mean fold change) | response of the mntH promoter (E. coli MG1655; RNA-Seq mean fold change) | response of the shiA promoter (E. coli MG1655; RNA-Seq mean fold change) | response of the ybiI promoter (E. coli MG1655; RNA-Seq mean fold change) |
| --- | --- | --- | --- | --- | --- | --- | --- | --- | --- | --- | --- | --- | --- | --- | --- | --- | --- | --- | --- | --- |
| [As] [Arsenic] | 1.00 | −0.18 | 0.24 | −0.05 | 0.25 | 0.33 | responds specifically and monotonically to increasing concentrations | 14 | 3 |  |  |  |  |  |  |  |  |  |  |  |
| [Cd] [Cadmium] | −0.13 | 1.00 | −0.02 | −0.08 | −0.26 | 0.46 |  | 38 | 132 | responds monotonically to increasing concentrations |  |  |  |  |  |  |  |  |  |  |
| [Cr+6] [Chromium(VI)] | −0.22 | 0.62 | 1.00 | −0.06 | −0.96 | 1.69 |  | 377 | 270 |  | sensitive | only shows sensitivity to high concentrations | only shows sensitivity to high concentrations | only shows sensitivity to high concentrations | exhibited this growth phase lag |  |  |  |  |  |
| [Cu] [Copper] |  | −0.09 | −0.08 | 1.00 | 0.16 | −0.17 |  | 77 | 110 |  |  |  |  |  | delay the onset of the exponential growth phase | responds monotonically to increasing concentrations | only shows sensitivity to high concentrations |  |  |  |
| [Pb] [Lead] | −0.05 | 0.06 | 0.01 | −0.05 | 0.12 | 1.00 |  | 489 | 99 |  |  |  |  |  |  |  |  | responds to high concentrations | responds to high concentrations | responds specifically and monotonically to increasing concentrations |
| Mercury | −0.18 | −0.09 | 0.58 | −0.05 | 1.00 | 1.44 |  | 218 | 165 |  |  |  |  |  | did not exhibit this growth phase lag |  |  |  |  |  |
